Publication PMC8929329, “The pharmaceutical excipient PEG400 affect the absorption of baicalein in Caco‐2 monolayer model by interacting with UDP‐glucuronosyltransferases and efflux transport proteins” (Pharmacology Research & Perspectives, 2022)

Columns and labels:
BCRP = assay: Permeation experiments on Caco-2 cell monolayer (two-way transport); assay type: in vitro ADME, human; conditions: human, Caco-2, with KO143 10 µM (BCRP inhibitor), 5 + 10 µM KO143 (BCRP inhibitor); for efflux ratio at 120 min, 5 µM: read-out: ER (P BL-AP)/(P AP-BL); for Papp A→B at 120 min, 5 µM: read-out: P app Absorptive (AP-BL); for Papp B→A at 120 min, 5 µM: read-out: P app Secretory (BL-AP)
Protocol: (§1) Cell culture was performed as previously described.[15] For transport experiments, Caco-2 cells from passage number 20-30 were seeded at a density of 2 × 10^5 cells per well on transwell plate (a solid insert for cell culture contains porous permeable polycarbonate membrane) with polycarbonate membranes using a blood-counting chamber (QIU JING®). A 0.5 ml of culture medium with cells was added to the apical side (AP) and 1.5 ml of blank culture medium was added to the basolateral side (BL). During the incubation period, the medium on the AP and BL sides were changed every 2 days in the first week, and every day after a week until the 21st day. The permeation of samples was assessed in both directions at different concentrations. This experiment assessed the influence of different concentrations (%, v/v) of PEG400 on the permeation process of B, BG, and […]. […] Caco-2 cell monolayers with qualified monolayer membrane integrity were used for drug permeability experiments. Aspirated and discarded the original culture medium in the transwell plate, added pre-warmed (37°C) HBSS to wash 3 times, put it in the incubator for the last time and incubated for 30 min. […] For the AP-BL permeability (absorptive transport study), add 0.5 ml of samples (dissolved in HBSS) to the apical side (AP) as a supply chamber, and add 1.5 ml of pre-warmed HBSS to the basolateral side (BL) as a receiving chamber. Alternatively, in the permeation direction of BL-AP compartment (secretive transport study), add 1.5 ml of samples (dissolved in HBSS) to the BL side as a supply chamber, and add 0.5 ml of pre-warmed HBSS to the AP side as a receiving chamber. After the above steps, put the transwell plate on the thermostatic oscillator (Changzhou Wanhe Instrument Manufacturing Co., Ltd.) at 60 r/min. And sample 100 μl from the receiving pool or 10 μl from the supply chamber at 30, 60, 90, and 120 min depending on the experiment, and make up the same volume of blank pre-warmed HBSS. The sample taken from the transwell plate was precipitated with the 100 μl of methanol to precipitate the protein. After centrifugation at 16 000g for 15 min at 4°C, 70 μl of the supernatant was taken. And the content was determined by UPLC-MS/MS method to calculate the apparent permeability coefficient (P app) and efflux ratio (ER). The P app and ER of Caco-2 monolayers was measured and calculated as Equations ((2), (3), (4)): (2) Papp=dQ/dt/AC0 Where ΔQ/Δt (ng/ml·s) is the rate of permeability (ng/ml·s for B, BG, […]); A is for the membrane area (1.12 cm^2); C 0 (ng/ml/for B, BG, […]) is the initial concentration of the sample in the supply chamber. The apparent permeability might need to be corrected because of the effect of the marked amount of baicalein glucuronide.[17] Thus, the corrected permeability was calculated from the total rate of drug transport and the glucuronide excretion rate of bidirectional side divided by the membrane area (A) of the monolayer and the initial concentration of baicalein at the loading side (C 0): (3) Pcorrected=dQ/dt+Aex+Bex/AC0 (4) […] - BL Where P appBL-AP is the apparent permeability coefficient when the sample is added on the basolateral side; […]-BL is the apparent permeability coefficient when the sample is added on the apical side.

P-gp = assay: as above; assay type: in vitro ADME, human; conditions: human, Caco-2, with verapamil 10 µM, 5 + 10 µM Ver (P-GP inhibitor); for efflux ratio at 120 min, 5 µM: read-out: ER (P BL-AP)/(P AP-BL)
Protocol: as §1

[1] = as above; assay type: in vitro ADME, human; conditions: human, Caco-2, 5 µM; for efflux ratio at 120 min, 5 µM: read-out: ER (P BL-AP)/(P AP-BL); for Papp A→B at 120 min, 5 µM: read-out: P app Absorptive (AP-BL); for Papp B→A at 120 min, 5 µM: read-out: P app Secretory (BL-AP)
Protocol: as §1

MRP2 = assay: as above; assay type: in vitro ADME, human; conditions: human, Caco-2, with MK-571 10 µM, 5 + 10 µM MK571 (MRP inhibitor); for efflux ratio at 120 min, 5 µM: read-out: ER (P BL-AP)/(P AP-BL); for Papp A→B at 120 min, 5 µM: read-out: P app Absorptive (AP-BL); for Papp B→A at 120 min, 5 µM: read-out: P app Secretory (BL-AP)
Protocol: as §1

Caco-2 cell monolayer = assay: as above; assay type: in vitro ADME, human; conditions: for P appAL-BL / P appBL-AL: 5 μM in supply chamber; for permeation within 2 h compared with the control group: AL-BL experiment, baicalein 10 μM loaded with 0.5% (v/v) PEG400; for penetration within 2 h compared with the control group: BL-AP experiment, baicalein 10 μM loaded with 0.5% (v/v) PEG
Protocol: as §1

Stability study in HBSS = assay type: physicochemical; conditions: 37°C, 2 h
Protocol: The test was carried out by measuring the content of B, BG, and B6G before and after keeping in the HBSS solution at 37°C for 2 h. The time interval was selected according to the permeation experiment. The differences between the contents of the three samples before or after the incubation were calculated and expressed as the percentage of B, BG, and B6G remaining.

[2] = parameters: method as in doi:10.2174/1573412916666200206141439; conditions: effect of PEG400; cited from earlier work

## O=C(O)[C@H]1O[C@@H](Oc2cc3oc(-c4ccccc4)cc(=O)c3c(O)c2O)[C@H](O)[C@@H](O)[C@@H]1O [BG, baicalein‐7‐O‐β‐D‐glucuronide]
BCRP
  efflux ratio at 120 min, 5 µM: 0.62
  Papp A→B at 120 min, 5 µM: 10.9 ± 0.4 ×10⁻⁶ cm/s
  Papp B→A at 120 min, 5 µM: 7.31 ± 0.9 ×10⁻⁶ cm/s
P-gp
  efflux ratio at 120 min, 5 µM: 1.65
P-gp; read-out: P app Absorptive (AP-BL)
  Papp A→B at 120 min, 5 µM: 6.37 ± 0.53 ×10⁻⁶ cm/s
P-gp; read-out: P app Secretory (BL-AP)
  Papp B→A at 120 min, 5 µM: 10.5 ± 0.14 ×10⁻⁶ cm/s
[1]
  efflux ratio at 120 min, 5 µM: 1.57
  Papp A→B at 120 min, 5 µM: 6.52 ± 0.28 ×10⁻⁶ cm/s
  Papp B→A at 120 min, 5 µM: 10.2 ± 0.37 ×10⁻⁶ cm/s
MRP2
  efflux ratio at 120 min, 5 µM: 0.86
  Papp A→B at 120 min, 5 µM: 13.2 ± 1.22 ×10⁻⁶ cm/s
  Papp B→A at 120 min, 5 µM: 11.4 ± 0.56 ×10⁻⁶ cm/s
Caco-2 cell monolayer; 5 µM + 0.25%PEG400
  ER (P BL-AP)/(P AP-BL): 1.03
  P app Absorptive (AP-BL): 9.91 ± 0.21 ^** 1 × 10^−6 cm·s^−1
  P app Secretory (BL-AP): 10.24 ± 0.95 1 × 10^−6 cm·s^−1
Caco-2 cell monolayer; 5 µM + 0.5%PEG400
  ER (P BL-AP)/(P AP-BL): 0.65
  P app Absorptive (AP-BL): 15.98 ± 0.11 ^** 1 × 10^−6 cm·s^−1
  P app Secretory (BL-AP): 10.36 ± 0.05 1 × 10^−6 cm·s^−1
Caco-2 cell monolayer; 5 µM + 1%PEG400
  ER (P BL-AP)/(P AP-BL): 0.57
  P app Absorptive (AP-BL): 14.37 ± 0.99 ^** 1 × 10^−6 cm·s^−1
  P app Secretory (BL-AP): 8.24 ± 0.07 ^** 1 × 10^−6 cm·s^−1
Caco-2 cell monolayer
  P appAL-BL: 6.52 ± 0.28 ×10⁻⁶ cm/s
  P appBL-AL: 10.23 ± 0.37 ×10⁻⁶ cm/s
  permeation within 2 h compared with the control group: significantly increased
  penetration within 2 h compared with the control group: did not show a significant difference
Stability study in HBSS; 150 ng ml^−1
  Stability (percentage remaining): 93.35 ± 8.25%
Stability study in HBSS; 300 ng ml^−1
  Stability (percentage remaining): 99.20 ± 2.56%
Stability study in HBSS; 600 ng ml^−1
  Stability (percentage remaining): 100.61 ± 4.92%
[2]
  AUC0-t in plasma: significantly increased
  C max in plasma: significantly increased

## O=C(O)[C@H]1O[C@@H](Oc2c(O)cc3oc(-c4ccccc4)cc(=O)c3c2O)[C@H](O)[C@@H](O)[C@@H]1O [B6G, baicalein‐6‐O‐β‐D‐glucuronide]
BCRP
  efflux ratio at 120 min, 5 µM: 0.71
  Papp A→B at 120 min, 5 µM: 6.68 ± 0.06 ×10⁻⁶ cm/s
  Papp B→A at 120 min, 5 µM: 4.77 ± 0.09 ×10⁻⁶ cm/s
P-gp
  efflux ratio at 120 min, 5 µM: 0.98
[1]
  efflux ratio at 120 min, 5 µM: 1.1
  Papp A→B at 120 min, 5 µM: 6.38 ± 0.26 ×10⁻⁶ cm/s
  Papp B→A at 120 min, 5 µM: 6.35 ± 0.55 ×10⁻⁶ cm/s
MRP2
  efflux ratio at 120 min, 5 µM: 0.65
  Papp A→B at 120 min, 5 µM: 6.91 ± 0.23 ×10⁻⁶ cm/s
  Papp B→A at 120 min, 5 µM: 4.56 ± 0.21 ×10⁻⁶ cm/s
Caco-2 cell monolayer; 5 µM
  ER (P BL-AP)/(P AP-BL): 1.01
Caco-2 cell monolayer; 5 µM + 0.25%PEG400
  ER (P BL-AP)/(P AP-BL): 0.93
  P app Absorptive (AP-BL): 6.74 ± 0.22 1 × 10^−6 cm·s^−1
  P app Secretory (BL-AP): 6.3 ± 0.98 1 × 10^−6 cm·s^−1
Caco-2 cell monolayer; 5 µM + 0.5%PEG400
  ER (P BL-AP)/(P AP-BL): 0.71
  P app Absorptive (AP-BL): 6.15 ± 0.17 ^* 1 × 10^−6 cm·s^−1
  P app Secretory (BL-AP): 4.39 ± 0.31 ^* 1 × 10^−6 cm·s^−1
Caco-2 cell monolayer; 5 µM + 1%PEG400
  ER (P BL-AP)/(P AP-BL): 0.56
  P app Absorptive (AP-BL): 7.53 ± 0.48 ^* 1 × 10^−6 cm·s^−1
  P app Secretory (BL-AP): 4.24 ± 0.25 ^** 1 × 10^−6 cm·s^−1
Caco-2 cell monolayer
  P appAL-BL: 6.38 ± 0.26 ×10⁻⁶ cm/s
  P appBL-AL: 6.35 ± 0.55 ×10⁻⁶ cm/s
  permeation within 2 h compared with the control group: significantly increased
  penetration within 2 h compared with the control group: did not show a significant difference
Caco-2 cell monolayer; 5 + 10 µM Ver (P-GP inhibitor)
  P app Absorptive (AP-BL): 6.37 ± 0.15 1 × 10^−6 cm·s^−1
  P app Secretory (BL-AP): 6.26 ± 0.2 1 × 10^−6 cm·s^−1
Stability study in HBSS; 150 ng ml^−1
  Stability (percentage remaining): 98.71 ± 6.52%
Stability study in HBSS; 300 ng ml^−1
  Stability (percentage remaining): 99.36 ± 6.23%
Stability study in HBSS; 600 ng ml^−1
  Stability (percentage remaining): 94.32 ± 5.33%
[2]
  AUC0-t in plasma: significantly increased
  C max in plasma: significantly increased
